From patent US20150181873A1, “HERBICIDE-RESISTANT SUNFLOWER PLANTS, POLYNUCLEOTIDES ENCODING HERBICIDE=RESISTANT ACETO HYDROXY ACID SYNTHASE LARGE SUBUNIT PROTEINS, AND METHODS OF USE” (NIDERA S.A., priority 2013, published 2015)
Several values for one entry are separate records, joined by “and”; a condition that tells them apart may be missing. Equal values may be shown once.

Tested on: sunflower genotypes carrying the A122T mutation event
Test: Greenhouse imazapir dose response, A122T genotypes together
Format: in vivo, Helianthus annuus
Conditions: 14 DAT; for root dry weight, Dif with control / biomass accumulation, Dif with control / plant height, Dif with Control: A122T mean; for Phytotoxicity Index, Dif A205V − A122T / biomass accumulation, Dif A122T − A205V / plant height, Dif A122T − A205V / root dry weight, Dif A122T − A205V: difference of group means; for biomass accumulation, % of untreated, Mean / plant height, % of untreated, Mean / root dry weight, % of untreated, Mean: six A122T genotypes; for Phytotoxicity Index, Mean: three A122T genotypes
Method: A greenhouse study was conducted to quantify and contrast the imazapir sensivity of the mutants A122T and A205V in different genetic backgrounds at the whole plant level in sunflower. Seeds of the different sunflower lines that were used in this study were obtained under field conditions.
Seeds were sown in Petri dishes and, after germination, plantlets were transplanted to pots of 10 cm of diameter in a potting media consisting of equal parts of vermiculite, soil and sand. Plants were grown in a greenhouse under natural light conditions supplemented with 400 W sodium halide lamps to provide a 16 hrs daylength. Day/night temperatures were 25 and 20° C., respectively. At the V2 stage 10 plants of each genotype were randomly assigned to each treatment consisting of […] imazapir doses (0, 40, 80, 160, 240, 320, 400 and 480 g ai/ha), and a zero-time biomass determination. Experiment was arranged as a randomized block design with a full factorial (sunflower line×treatment) arrangement of treatments and 10 replications.
On the day of herbicide application ten plants of each genotype were cut at the cotyledonal node and dried at 60° C. for 48 hrs zero-time for dried weight determination. […] Height was determined as the distance between the cotyledonal node and the apex of each plant. For root biomass determination, each plant was taken from the pot and the potting media was washed out from the roots. Above ground biomass data from each line were converted to biomass accumulation after application by subtracting the appropriate average zero-time biomass from each sample. Dry biomass data were converted to percentages of the untreated control plants within each line to allow direct comparisons between groups.

CC(C)C1(C)N=C(c2ncccc2C(=O)O)NC1=O (stereo not drawn) [Imazapyr, imazapyr]
root dry weight, Dif with control (4x (320 g ai/ha)): 18.6%
biomass accumulation, Dif with control (5x (400 g ai/ha)): 20.7%
plant height, Dif with Control (5x (400 g ai/ha)): 10.2%
root dry weight, Dif with control (5x (400 g ai/ha)): 21.3%
plant height, Dif with Control (6x (480 g ai/ha)): 15.8%
root dry weight, Dif with control (6x (480 g ai/ha)): 38.3%
biomass accumulation, Dif with control (6x (480 g ai/ha), listed as imazapir): 25% and 25.4%
Phytotoxicity Index, Dif A205V − A122T (0.5x (40 g ai/ha)): −0.29
biomass accumulation, Dif A122T − A205V (0.5x (40 g ai/ha)): 4.3%
plant height, Dif A122T − A205V (0.5x (40 g ai/ha)): 4.9%
root dry weight, Dif A122T − A205V (0.5x (40 g ai/ha)): 12.7%
Phytotoxicity Index, Dif A205V − A122T (1x (80 g ai/ha)): −0.29
biomass accumulation, Dif A122T − A205V (1x (80 g ai/ha)): 14.5%
plant height, Dif A122T − A205V (1x (80 g ai/ha)): 9.4%
root dry weight, Dif A122T − A205V (1x (80 g ai/ha)): 26.7%
Phytotoxicity Index, Dif A205V − A122T (2x (160 g ai/ha)): 1.87
biomass accumulation, Dif A122T − A205V (2x (160 g ai/ha)): 33.2%
plant height, Dif A122T − A205V (2x (160 g ai/ha)): 28.0%
root dry weight, Dif A122T − A205V (2x (160 g ai/ha)): 43.6%
Phytotoxicity Index, Dif A205V − A122T (3x (240 g ai/ha)): 4.81
biomass accumulation, Dif A122T − A205V (3x (240 g ai/ha)): 45.3%
plant height, Dif A122T − A205V (3x (240 g ai/ha)): 45.3%
root dry weight, Dif A122T − A205V (3x (240 g ai/ha)): 50.2%
Phytotoxicity Index, Dif A205V − A122T (4x (320 g ai/ha)): 6.92
biomass accumulation, Dif A122T − A205V (4x (320 g ai/ha)): 52.4%
plant height, Dif A122T − A205V (4x (320 g ai/ha)): 59.9%
root dry weight, Dif A122T − A205V (4x (320 g ai/ha)): 50.3%
Phytotoxicity Index, Dif A205V − A122T (5x (400 g ai/ha)): 7.38
biomass accumulation, Dif A122T − A205V (5x (400 g ai/ha)): 46.9%
plant height, Dif A122T − A205V (5x (400 g ai/ha)): 57.8%
root dry weight, Dif A122T − A205V (5x (400 g ai/ha)): 47.9%
Phytotoxicity Index, Dif A205V − A122T (6x (480 g ai/ha)): 7.03
biomass accumulation, Dif A122T − A205V (6x (480 g ai/ha)): 44.6%
plant height, Dif A122T − A205V (6x (480 g ai/ha)): 54.0%
root dry weight, Dif A122T − A205V (6x (480 g ai/ha)): 37.3%
biomass accumulation, % of untreated, Mean (0.5x (40 g ai/ha)): 98.9%
plant height, % of untreated, Mean (0.5x (40 g ai/ha)): 99.4%
root dry weight, % of untreated, Mean (0.5x (40 g ai/ha)): 99.9%
biomass accumulation, % of untreated, Mean (1x (80 g ai/ha)): 96.8%
plant height, % of untreated, Mean (1x (80 g ai/ha)): 98.6%
root dry weight, % of untreated, Mean (1x (80 g ai/ha)): 97.5%
biomass accumulation, % of untreated, Mean (2x (160 g ai/ha)): 94.9%
plant height, % of untreated, Mean (2x (160 g ai/ha)): 97.3%
root dry weight, % of untreated, Mean (2x (160 g ai/ha)): 94.1%
biomass accumulation, % of untreated, Mean (3x (240 g ai/ha)): 92.8%
plant height, % of untreated, Mean (3x (240 g ai/ha)): 95.6%
root dry weight, % of untreated, Mean (3x (240 g ai/ha)): 89.4%
biomass accumulation, % of untreated, Mean (4x (320 g ai/ha)): 87.8%
plant height, % of untreated, Mean (4x (320 g ai/ha)): 93.7%
root dry weight, % of untreated, Mean (4x (320 g ai/ha)): 81.4%
biomass accumulation, % of untreated, Mean (5x (400 g ai/ha)): 79.3%
plant height, % of untreated, Mean (5x (400 g ai/ha)): 89.8%
root dry weight, % of untreated, Mean (5x (400 g ai/ha)): 78.7%
biomass accumulation, % of untreated, Mean (6x (480 g ai/ha)): 74.6%
plant height, % of untreated, Mean (6x (480 g ai/ha)): 84.2%
root dry weight, % of untreated, Mean (6x (480 g ai/ha)): 61.7%
Phytotoxicity Index, Mean (0.5x (40 g ai/ha)): 0.3
Phytotoxicity Index, Mean (1x (80 g ai/ha)): 0.3
Phytotoxicity Index, Mean (2x (160 g ai/ha)): 0.3
Phytotoxicity Index, Mean (3x (240 g ai/ha)): 0.3
Phytotoxicity Index, Mean (4x (320 g ai/ha)): 0.5
Phytotoxicity Index, Mean (5x (400 g ai/ha)): 0.8
Phytotoxicity Index, Mean (6x (480 g ai/ha)): 1.2
